In patent US12303508B2, “Combinatory treatment strategies of cancer based on RNA polymerase I inhibition” (THE JOHNS HOPKINS UNIVERSITY, priority 2016, dated 2025):

Columns and labels:
[1] = tested on: LNCaP prostate cancer cells; assay: Cell viability (CellTiter-Blue) with Chou-Talalay combination index, LNCaP; assay type: cell-based; details: in combination with BMH-21, LNCaP cells, 48 h
Procedure: Cell viability was measured using Cell TiterBlue, and the mean of triplicate samples is shown. (B) Chou-Talalay combination index (CI) analysis was used to determine the drug interactions (blue curve). CI<1 denotes synergism. Red bar, C=1 additive effect. Fraction dead cells denotes the combinatory drug activity where 1 represents 100% kill.
(§1) Cells and Viability Assay. A375 melanoma and LNCaP prostate cancer cells were from American Type Culture Collection. HCT116 p53+/+ and −/− cells were from Dr. F. Bunz. MR49F cells were from Dr. M. Gleave. Cells were maintained at 37° C. in a humidified atmosphere containing 5% CO2. Cells were plated in 96-well plates at a density of 3,000 cells/well in triplicate and incubated for 48 h with the compounds. Viability was determined using CellTiter-Blue Cell Viability Assay (Promega) according to manufacturer's instructions. Chou-Talaley algorithm (Compusyn) was used to define the combination index (CI) where CI<1 denotes synergism, CI>1 denotes antagonism and CI=1 is additive. Effect denotes the combinatory drug activity where 1 represents 100% kill.

MR49F cells = assay: Cleaved caspase-3 and DNA staining, MR49F; assay type: cell-based; details: for massive apoptotic response, single treatment: either treatment alone
From the text: (§2) The inset bars represent sub-G1 cells. (B) The percentage of sub-G1 cells from A is plotted over time. (C) Staining of the cells for the apoptosis marker caspase-3. Immunofluorescence and Epifluorescence Microscopy. Cells grown on coverslips were fixed in 3.5% paraformaldehyde, permeabilized with 0.5% NP-40 and blocked with 3% BSA. Cells were stained for LC3-II and cleaved caspase-3 (Cell Signaling). Alexa 488-conjugated secondary antibodies were from Invitrogen. DNA was counterstained with DAPI (Invitrogen). Images were captured using Axioplan2 fluorescence microscope (Zeiss) equipped with AxioCam HRc CCD-camera and AxioVision 4.5 software using EC Plan-Neofluar 20× or 40× objectives (Zeiss).

[2] = tested on: MR49F enzalutamide-resistant prostate cancer cells; assay: Cell viability (CellTiter-Blue) with Chou-Talalay combination index, MR49F; assay type: cell-based; details: in combination with BMH-21, constant concentrations, 48 h, CI<1 synergism
Procedure: (§3) Cell viability was measured using Cell TiterBlue, and Chou-Talalay Combination Index analysis was performed. CI<1 denotes synergism. Effect denotes the combinatory drug activity where 1 represents 100% kill.
(§4) Cells were maintained at 37° C. in a humidified atmosphere containing 5% CO2. […] Effect denotes the combinatory drug activity where 1 represents 100% kill.

LNCaP cells = assay: Cleaved caspase-3 and DNA staining, LNCaP; assay type: cell-based; details: for massive apoptotic response, single treatment: either treatment alone
From the text: as §2

NCI60 cancer cell lines = details: previously demonstrated; cited from earlier work
RPA194 = details: previously demonstrated; cited from earlier work
tumor xenograft = details: previously demonstrated; cited from earlier work
[3] = tested on: HCT116 p53+/+ colon carcinoma cells; assay: Cell viability (CellTiter-Blue) with Chou-Talalay combination index, HCT116 p53+/+; assay type: cell-based; details: in combination with BMH-21, HCT116 p53+/+ cells, 48 h
Procedure: (§5) Data represent N=2 biological assays each conducted in triplicate. […] Chou-Talalay plots are shown. Data represents N=2 biological assays each conducted in triplicate.
as §1
(§6) The inventors tested these combinations in three different cell lines (A375 melanoma cells, HCT116 p53+/+ and HCT116 p53−/− colon carcinoma cells).

[4] = tested on: HCT116 p53−/− colon carcinoma cells; assay: Cell viability (CellTiter-Blue) with Chou-Talalay combination index, HCT116 p53-/-; assay type: cell-based; details: in combination with BMH-21, HCT116 p53−/− cells, 48 h
Procedure: as §5, §1, §6

[5] = tested on: A375 human melanoma cells; assay: Cell viability (CellTiter-Blue) with Chou-Talalay combination index, A375; assay type: cell-based; details: in combination with BMH-21, constant concentrations, 48 h, CI<1 synergism, CI>1 antagonism
Procedure: as §4

LC3-II in MR49F cells = assay: LC3-II western blotting and immunofluorescence staining; assay type: cell-based; details: 24 h
Procedure: as §3
as §2, with “Immunofluorescence” for “The inset bars represent sub-G1 cells. (B) The percentage of sub-G1 cells from A is plotted over time. (C) Staining of the cells for the apoptosis marker caspase-3. Immunofluorescence”
Immunoblotting. Cells were lysed in 0.5% NP-40 buffer (25 mM Tris-HCl, pH 8.0, 120 mM NaCl, 0.5% NP-40, 4 mM NaF, 100 μM Na3VO4, 100 KIU/ml aprotinin, 10 μg/ml leupeptin) or RIPA lysis buffer. Proteins were separated on SDS-PAGE, blotted, probed for respective proteins and detected using ECL (Amersham). The primary antibodies used for detection were LC3-II and cleaved caspase-3 (Cell Signaling). HRP-conjugated secondary antibodies were from DAKO or Santa Cruz Biotechnology.

[6] = BMH-21 plus Avasimibe combination

Compound	massive apoptotic response, single treatment (MR49F cells)	drug interaction with BMH-21 (Chou-Talalay combination index on cell viability) [2]	massive apoptotic response, single treatment (LNCaP cells)	drug interaction with BMH-21 (Chou-Talalay combination index on cell viability) [3]	drug interaction with BMH-21 (Chou-Talalay combination index on cell viability) [4]	drug interaction with BMH-21 (Chou-Talalay combination index on cell viability) [5]	other results
CC(C)c1cc(C(C)C)c(CC(=O)NS(=O)(=O)Oc2c(C(C)C)cccc2C(C)C)c(C(C)C)c1 [Avasimibe]	not observed	prominent synergistic activities	not observed	–	–	–	drug interaction with BMH-21 (cell viability, Chou-Talalay combination index) [1]: synergistic cancer cell death; apoptosis by cleaved caspase-3 and DNA staining, combination (MR49F cells; [6]): prominent cell apoptosis; apoptosis by cleaved caspase-3 and DNA staining, combination (LNCaP cells; [6]): prominent cell apoptosis
CN(C)CCNC(=O)c1cccn2c(=O)c3cc4ccccc4cc3nc12 [BMH-21, 12H-Benzo[g]pyrido[2,1-b]quinazoline-4-carboxamide, N-[2(dimethylamino)ethyl]-12-oxo]	not observed	–	not observed	–	–	–	anticancer activity in NCI60 cancer cell lines (NCI60 cancer cell lines): broad and potent anticancer activity; degradation of RPA194 (RPA194): causes proteasome-mediated degradation of RPA194; tumor burden in mouse xenograft assays (tumor xenograft): reduced tumor burden
Cn1ncnc1[C@H]1c2n[nH]c(=O)c3cc(F)cc(c23)N[C@@H]1c1ccc(F)cc1 [BMN-673]	–	–	–	synergistically	synergistically	synergistically	–
CCN(CC)CCCC(C)Nc1ccnc2cc(Cl)ccc12 (centres unmarked) [chloroquine]	–	–	–	–	–	–	number of LC3-II puncta (LC3-II in MR49F cells; co-treatment with BMH-21 (1 μM)): significant increase; expression of LC3-II (marker for autophagy inhibition) (LC3-II in MR49F cells; combination with BMH-21 (1 μM), western blotting and immunofluorescence): increased
O=C(c1cc(Cc2n[nH]c(=O)c3ccccc23)ccc1F)N1CCN(C(=O)C2CC2)CC1 [olaparib, 4-[[3-[4-(cyclopropanecarbonyl)piperazine-1-carbonyl]-4-fluorophenyl]methyl]-2H-phthalazin-1-one]	–	–	–	synergistically	synergistically	synergistically	–
Bafilomycin	–	synergistic cell death	–	–	–	–	–
